Reference: patent publication US10898498B2, “Slow release oxysterols and methods of use” (Warsaw Orthopedic, Inc., priority 2015, dated 2021)
“Also recorded” adds a separate entry of the source.

Columns and labels:
[1] = system: multipotent mesenchymal cells such as M2-10B4 (M2) marrow stromal cells and C3H10T1/2 embryonic fibroblasts; details: M2-10B4 marrow stromal cells and C3H10T1/2 embryonic fibroblasts; cited from earlier work
[2] = system: rat two-level spine model (posterolateral space, L3-L5); experiment: Rat two-level posterolateral spine fusion model, implants placed bilaterally; radiographs and manual palpation; type: in vivo; details: for bone growth / bridging bone on radiographs: 4-week and 8-week timepoints; for spinal fusion by manual palpation evaluation of the spine segments: 8 weeks; for fusion observed (share of rat spines fused, manual palpation): matrix of Oxy133, collagen and ceramic wetted with sterile water, bilateral, 8-week sacrifice, 5/5 spines
Method: FIG. 6 illustrates uses of a formulation of malleable implants having 20 mg of Oxy133 on each side of the implant, in accordance with the malleable implants described herein. […] A dry composition of a matrix containing Oxy133, collagen and ceramic as described herein was prepared and wetted with sterile water to be implanted in rat spines as shown in FIG. 6. The wetted matrix was cut in half with a razor blade to yield two halves. The two implants were molded into cylindrical shapes prior to insertion and were positioned bilaterally in the posterolateral space of each test subject. Each implant contained 20 mg Oxy133. Radiographs were taken roughly 10 minutes after the procedure, 4 weeks after the procedure, and 8 weeks after the procedure. […] Fusion was tested at 8-week sacrifice by manual palpation. […] A dry composition of a matrix containing Oxy133, collagen and ceramic as described herein was prepared and wetted with sterile water to be implanted in rat spines as shown in FIG. 6. The wetted matrix was cut in half with a razor blade to yield two halves. The two implants were molded into cylindrical shapes prior to insertion and were positioned bilaterally in the posterolateral space of each test subject. Each implant contained 125 mg Oxy133. Radiographs were taken roughly 10 minutes after the procedure, 4 weeks after the procedure, and 8 weeks after the procedure. […] Fusion was tested at 8-week sacrifice by manual palpation.

Compound: CC(C)CC[C@@H](O)[C@@H](C)[C@H]1CC[C@H]2[C@@H]3CC=C4C[C@@H](O)CC[C@]4(C)[C@H]3CC[C@]12C [22(R)-hydroxycholesterol]
- osteogenic differentiation [1]: induce osteogenic differentiation

Compound: CC(C)CC[C@H](O)[C@@H](C)[C@H]1CC[C@H]2[C@@H]3CC=C4C[C@@H](O)CC[C@]4(C)[C@H]3CC[C@]12C [22(S)-hydroxycholesterol]
- osteogenic differentiation [1]: induce osteogenic differentiation

Compound: CCCCCC[C@](C)(O)[C@H]1CC[C@H]2[C@@H]3C[C@H](O)[C@H]4C[C@@H](O)CC[C@]4(C)[C@H]3CC[C@@]21C [Oxy133, (3S,5S,6S,8R,9S,10R,13S,14S,17S)-17-((S)-2-hydroxyoctan-2-yl)-10,13-dimethylhexadecahydro-1H-cyclopenta[a]phenanthrene-3,6-diol]
- bone growth / bridging bone on radiographs ([2]; each implant 20 mg Oxy133): Bone growth in rat test subjects can be seen; also recorded: promoted bridging bone across the transverse processes of L3-L5
- spinal fusion by manual palpation evaluation of the spine segments ([2]; each implant 20 mg Oxy133): yielded spinal fusion; also recorded: limited flexibility
- bone growth / bridging bone on radiographs ([2]; each implant 125 mg Oxy133): Bone growth in rat test subjects can be seen; also recorded: promoted bridging bone across the transverse processes of L3-L5
- spinal fusion by manual palpation evaluation of the spine segments ([2]; each implant 125 mg Oxy133): yielded spinal fusion; also recorded: limited flexibility
- fusion observed (share of rat spines fused, manual palpation) ([2]; each implant 20 mg Oxy133): 100%
- fusion observed (share of rat spines fused, manual palpation) ([2]; each implant 125 mg Oxy133): 100%

Compound: CC(C)CCC[C@](C)(O)[C@H]1CC[C@H]2[C@@H]3CC=C4C[C@@H](O)CC[C@]4(C)[C@H]3CC[C@@]21C [20(S)-hydroxycholesterol]
- osteogenic differentiation [1]: induce osteogenic differentiation
